Data reported in patent US10905736B2, “Ezetimibe-associated ApoA-I mimetic peptides showing enhanced synergism” (The Regents of the University of California, priority 2016, dated 2021).
Entries after “also recorded” stand apart in the source; their conditions may differ.

Columns and labels:
[1] = test system: Niemann-Pick C1-like 1 (NPC1L1) protein; conditions: by targeting NPC1L1; cited from earlier work
LDLR null mice [2] = test: Plasma lysophosphatidylcholine (LysoPC) levels in LDLR null mice fed Western diet for two weeks; assay type: in vivo, mouse; conditions: female LDLR null mice age 4-7 months, WD two weeks, Tg6F 0.06% by weight, Ezetimibe 10 mg/kg/day
Protocol: After feeding the diets for two weeks the mice were bled and plasma lipid levels, plasma levels of lysophosphatidylcholine (LysoPC), and plasma levels of Serum Amyloid A (SAA) were determined as described in Example 3 Methods. Panel A) Plasma total cholesterol levels. Panel B) The decrease in plasma cholesterol compared to WD for each treatment. Panel C) Plasma triglyceride levels. Panel D) The decrease in plasma triglycerides compared to WD for each treatment. Panel E) Plasma HDL-Cholesterol levels. Panel F) The Increase in plasma HDL-Cholesterol compared to WD for each treatment. Panel G) Plasma LysoPC 18:0 levels. Panel H) The decrease in plasma LysoPC 18:0 levels compared to WD for each treatment. Panel I) Plasma LysoPC 18:1 levels. Panel J) The decrease in plasma LysoPC 18:1 levels compared to WD for each treatment. Panel K) Plasma LysoPC 20:4 levels. Panel L) The decrease in plasma LysoPC 20:4 levels compared to WD for each treatment. Panel M) Plasma SAA levels. Panel N) The decrease in plasma SAA levels compared to WD for each treatment. The data shown are Mean±SEM. NS=Not significant.
In experiments in which Tg6F or EV or Ezetimibe were administered as single agents, the EV or Tg6F concentrate was added to WD at 0.06% by weight or Ezetimibe was added to WD to give a final dose of 10 mg/kg body weight/day. The EV or Tg6F concentrate or Ezetimibe was mixed into the diets as described (Chattopadhyay et al. (2015) Pharma. Res. Per. 3: e00154). In experiments in which the EV or Tg6F concentrates and Ezetimibe were both added to WD, each was added separately to WD at the same dose as used for the single agents, and each was mixed into the diet as described (Id.). […]
Plasma lipids, and serum amyloid A (SAA) levels were determined and LC-MS/MS was performed as described (Navab et al. (2012) J. Lipid Res. 53: 437-446; Chattopadhyay et al. (2016) J. Lipid Res. 57: 832-847; Chattopadhyay et al. (2015) Pharma. Res. Per. 3: e00154). […]

LDLR null mice [3] = test: Plasma lipid levels (total cholesterol, triglycerides, HDL-cholesterol) in LDLR null mice fed Western diet for two weeks; assay type: in vivo, mouse
Protocol: Res. Per. 3: e00154; Chattopadhyay et al. (2016) J. Lipid Res. 57: 832-847; PCT Pub. Nos: WO 2013/148214 (PCT/US2013/031037), WO 2015/175968 (PCT/US2015/031134)) (Tg6F), or the mice were fed WD with Ezetimibe added to give a daily dose of 10 mg/kg body weight/day (WD+Ezetimibe), or the mice were fed WD with Tg6F added at 0.06% by weight plus Ezetimibe (each added separately to the diet) to give a daily dose of Ezetimibe of 10 mg/kg body weight; the Tg6F and Ezetimibe were mixed into WD as described previously (Chattopadhyay et al. (2016) J. Lipid. Res. 57: 832-847) (Combined Formulation), or the mice were fed WD to which was added ezetimibe-associated transgenic 6F peptide (Ez-tg6F) at 0.06% Tg6F by weight containing sufficient Ezetimibe to give a daily dose of 10 mg/kg body weight/day that was prepared as described herein. Specifically, the ezetimibe-associated Tg6F peptide (Ez-Tg6F) was made by adding the ezetimibe directly to a solution of ethyl acetate 5% acetic acid that had been incubated overnight at room temperature with freeze-dried tomato powder obtained from transgenic tomatoes expressing the 6F peptide, and which had been removed to a separate vessel as described previously (see, e.g., Chattopadhyay et al. (2015) Pharma. Res. Per. 3: e00154; Chattopadhyay et al. (2016) J. Lipid. Res. 57: 832-847) prior to addition of the ezetimibe. After the addition of the ezetimibe, the solution was incubated at room temperature with gentle mixing for two hours prior to processing and addition of the resulting freeze-dried powder to WD as previously described (Chattopadhyay et al. (2016) J. Lipid. Res. 57: 832-847). After feeding the diets for two weeks, the mice were bled and total plasma cholesterol levels were determined as described (Id.). NS=Not Significant.
LDLR-null mice originally purchased from Jackson Laboratories on a C57BL/6J background were obtained from the breeding colony of the Department of Laboratory and Animal Medicine at the David Geffen School of Medicine at UCLA. The gender and age of the mice are stated in the legend to each figure. The mice were maintained on standard mouse chow (Ralston Purina) before being switched to a Western diet WD (Teklad, Harlan, catalog #TD88137).
In experiments in which Tg6F or EV or Ezetimibe were administered as single agents, the EV or Tg6F concentrate was added to WD at 0.06% by weight or Ezetimibe was added to WD to give a final dose of 10 mg/kg body weight/day. The EV or Tg6F concentrate or Ezetimibe was mixed into the diets as described (Chattopadhyay et al. (2015) Pharma. Res. Per. 3: e00154). […]

## O=C1[C@H](CC[C@H](O)c2ccc(F)cc2)[C@@H](c2ccc(O)cc2)N1c1ccc(F)cc1 [Ezetimibe, (3R,4S)-1-(4-fluorophenyl)-3-[(3S)-3-(4-fluorophenyl)-3-hydroxypropyl]-4-(4-hydroxyphenyl)azetidin-2-one]
[1]
  transintestinal cholesterol efflux (TICE): promotes TICE
LDLR null mice [2]; FIG. 16 G-H
  plasma LysoPC 18:0 levels: failed to significantly alter plasma levels of LysoPC 18:0
LDLR null mice [2]; FIG. 16 I-J
  plasma LysoPC 18:1 levels: significantly decreased plasma levels of LysoPC 18:1
LDLR null mice [2]; FIG. 16 K-L
  plasma LysoPC 20:4 levels: significantly reduced plasma levels of LysoPC 20:4
LDLR null mice [3]; female LDLR null mice age 3-6 months, n=20-28 per group, WD two weeks, Tg6F 0.06% by weight, Ezetimibe 10 mg/kg/day, FIG. 15
  dyslipidemia (plasma total cholesterol, triglycerides, HDL-Cholesterol): significantly ameliorated dyslipidemia
LDLR null mice [3]; statement over the experiments of Example 3 (single agents five out of five, Combined Formulation five out of five, Novel Method three out three experiments)
  plasma triglyceride levels: equally effective; also recorded: improved plasma total cholesterol and triglyceride levels
LDLR null mice [3]; statement over the experiments of Example 3 (single agents five out of five, Combined Formulation four out of five, Novel Method three out three experiments)
  plasma total cholesterol levels: equally effective; also recorded: improved plasma total cholesterol and triglyceride levels
LDLR null mice [3]; statement over the experiments of Example 3 (single agents four out of four, Combined Formulation four out of four, Novel Method two out of two experiments)
  plasma HDL-cholesterol levels: equally effective; also recorded: significantly increased the levels
